Results: ChEMBL document CHEMBL1201862, “PubChem BioAssay data set” (2004)
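Step 1: Grow cells in 96-well plates. Step 2: Expose to compound for 48 hours at 5 concentrations. Step 3: Interpolate endpoints linearly; if unreached, use highest concentration. The concentration for 50% growth inhibition is given as GI50.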 Calls of active or inactive are those of the source. No stated cut-off is given here; in the data, active = GI50 up to about 1.1 µM and inactive = higher.

Tests used:
Experiment in all cases: NCI-60 cell line screen, 48 h
SK-MEL-5 = tested on: SK-MEL-5
MDA-MB-435 = tested on: MDA-MB-435
LOX IMVI = tested on: LOX IMVI
MDA-MB-231 = tested on: MDA-MB-231
SR = tested on: SR
HT-29 = tested on: HT-29
SNB-19 = tested on: SNB-19
SF-268 = tested on: SF-268
TK-10 = tested on: TK-10
OVCAR-3 = tested on: OVCAR-3
M14 = tested on: M14
OVCAR-8 = tested on: OVCAR-8
SW-620 = tested on: SW-620
SNB-75 = tested on: SNB-75
CCRF-CEM = tested on: CCRF-CEM
OVCAR-4 = tested on: OVCAR-4
UO-31 = tested on: UO-31
SK-OV-3 = tested on: SK-OV-3
RPMI-8226 = tested on: RPMI-8226
K562 = tested on: K562

Measured: GI50

NC(=O)C1CCCNC1 (stereo unspecified)
inactive: SK-MEL-5 > 100 µM | MDA-MB-435 > 100 µM | LOX IMVI > 100 µM | MDA-MB-231 > 100 µM | SR > 100 µM | HT-29 > 100 µM | SNB-19 > 100 µM | SF-268 > 100 µM | TK-10 > 100 µM | OVCAR-3 > 100 µM | M14 > 100 µM | OVCAR-8 > 100 µM | SW-620 > 100 µM | SNB-75 > 100 µM | CCRF-CEM > 100 µM | OVCAR-4 > 100 µM | UO-31 > 100 µM | SK-OV-3 > 100 µM | RPMI-8226 > 100 µM

COc1ccc(OC)c(/N=C/c2cc(OC)c(OC)c(OC)c2)c1
inactive: SK-MEL-5 > 100 µM | MDA-MB-435 28 µM | LOX IMVI > 100 µM | MDA-MB-231 > 100 µM | SR 32.5 µM | HT-29 > 100 µM | SNB-19 > 100 µM | SF-268 > 100 µM | K562 > 68.1 µM | TK-10 > 100 µM | M14 > 100 µM | OVCAR-8 > 100 µM | SW-620 > 91.2 µM | SNB-75 > 100 µM | CCRF-CEM 22.9 µM | OVCAR-4 > 85.1 µM | UO-31 > 100 µM | SK-OV-3 > 77.8 µM | RPMI-8226 > 44.1 µM

Cc1cc2c3c([nH]c2c2ccnc(C)c12)CCCC3
inactive: SK-MEL-5 1.55 µM | MDA-MB-435 1.88 µM | LOX IMVI 1.96 µM | MDA-MB-231 1.69 µM | SR 1.93 µM | HT-29 2.46 µM | SF-268 3.75 µM | K562 2.07 µM | TK-10 2.33 µM | OVCAR-3 2.14 µM | M14 1.9 µM | OVCAR-8 2.18 µM | SW-620 1.91 µM | SNB-75 1.87 µM | CCRF-CEM 2.5 µM | OVCAR-4 2.24 µM | UO-31 2.05 µM | SK-OV-3 1.85 µM | RPMI-8226 1.84 µM

CC1OC2OC3C(OCC(O)C3O)OC(=O)[C@]34CCC(C)(C)CC3C3=CCC5[C@@]6(C)C[C@H](O)[C@H](OC7OC(CO)C(O)C(O)C7OC7OC(COC(=O)CC(C)(O)CC(=O)OC1C(O)C2O)C(O)C(O)C7O)[C@@](C)(CO)C6CC[C@@]5(C)[C@]3(C)CC4 (stereo partly specified)
inactive: SK-MEL-5 1.21 µM | MDA-MB-435 1.57 µM | LOX IMVI 1.61 µM | MDA-MB-231 1.56 µM | SR 1.6 µM | HT-29 1.69 µM | SNB-19 1.68 µM | SF-268 1.54 µM | TK-10 1.61 µM | OVCAR-3 1.53 µM | M14 1.43 µM | OVCAR-8 1.65 µM | SW-620 1.16 µM | SNB-75 1.47 µM | CCRF-CEM 1.51 µM | OVCAR-4 1.51 µM | UO-31 1.22 µM | SK-OV-3 1.56 µM | RPMI-8226 1.66 µM
